According to patent US9617602B2, “Methods and compositions for determining resistance to androgen receptor therapy” (Aragon Pharmaceuticals, Inc., priority 2012, dated 2017):

Legend:
[1] = system: Class 2 resistant cell lines; assay: Endogenous gene transcriptional assay (real-time PCR of androgen responsive genes); type: cell-based, human
Experimental: (§1) Total RNA was isolated using the Aurum™ total RNA isolation kit (BIO-RAD, Hercules, Calif.). RNA (1 μg) was reverse transcribed using the iScript cDNA synthesis kit (BIO-RAD, Hercules, Calif.) to produce cDNA. Real-time PCR was performed using the Applied Biosystems 7900HT instrument and SYBR Green PCR Master Mix (Applied Biosystems, Foster City, Calif.). PCR reactions were performed in 6 μL according to the manufacturer's protocol and a thermocycle protocol of 95° C. for 10 minutes followed by 40 cycles of 95° C. for 15 seconds and 58° C. for 1 minute. Androgen responsive gene (PSA, SLUG, TMPRSS2, STEAP4, FKBP5, ORM1, NOV, FASN, NKX3.1, AMIGO2, BDNF, CAMK2N1, HPGD, NCAPD3, PLD1) expression was normalized to GAPDH expression and expressed relative to vehicle treatment of the parental cell line.

LNCaP/AR(cs) cells = assay: as above; type: cell-based, human
Experimental: as §1
Gene expression was normalized to GAPDH as described above.

[2] = Table 4A, 1 nM R1881 or 30 μM compound, vehicle=1.00

## CNC(=O)c1ccc(N2C(=S)N(c3ccc(C#N)c(C(F)(F)F)c3)C(=O)C2(C)C)cc1F [Enzalutamide, enzalutamide]
[1]
  Transcriptional activity on endogenous androgen-responsive genes, Class 2 resistant cell lines: robust transcriptional agonist activity
LNCaP/AR(cs) cells; +1 nM R1881, 0.3 μM
  AMIGO2 expression, antagonist transcription: 0.49
  BDNF expression, antagonist transcription: 0.61
  CAM2KN1 expression, antagonist transcription: 0.04
  FASN expression, antagonist transcription: 1.30
  FKBP5 expression, antagonist transcription: 23.51
  HPGD expression, antagonist transcription: 99.16
  NCAPD3 expression, antagonist transcription: 23.74
  NKX3.1 expression, antagonist transcription: 7.70
  NOV expression, antagonist transcription: 0.11
  PLD1 expression, antagonist transcription: 0.02
  PSA expression, antagonist transcription: 22.76
  SLUG expression, antagonist transcription: 50.08
  STEAP4 expression, antagonist transcription: 585.81
  TMPRSS2 expression, antagonist transcription: 19.88
LNCaP/AR(cs) cells; +1 nM R1881, 1 μM
  AMIGO2 expression, antagonist transcription: 0.19
  BDNF expression, antagonist transcription: 0.28
  CAM2KN1 expression, antagonist transcription: 0.06
  FASN expression, antagonist transcription: 0.42
  FKBP5 expression, antagonist transcription: 5.64
  HPGD expression, antagonist transcription: 16.30
  NCAPD3 expression, antagonist transcription: 4.35
  NKX3.1 expression, antagonist transcription: 3.77
  NOV expression, antagonist transcription: 0.14
  PLD1 expression, antagonist transcription: 0.02
  PSA expression, antagonist transcription: 8.82
  SLUG expression, antagonist transcription: 10.20
  STEAP4 expression, antagonist transcription: 109.37
  TMPRSS2 expression, antagonist transcription: 7.72
LNCaP/AR(cs) cells; +1 nM R1881, 3 μM
  AMIGO2 expression, antagonist transcription: 0.48
  BDNF expression, antagonist transcription: 0.63
  CAM2KN1 expression, antagonist transcription: 0.27
  FASN expression, antagonist transcription: 0.71
  FKBP5 expression, antagonist transcription: 3.32
  HPGD expression, antagonist transcription: 13.19
  NCAPD3 expression, antagonist transcription: 3.14
  NKX3.1 expression, antagonist transcription: 6.72
  NOV expression, antagonist transcription: 0.61
  ORM1 expression, antagonist transcription: 257.85
  PLD1 expression, antagonist transcription: 0.13
  PSA expression, antagonist transcription: 11.75
  SLUG expression, antagonist transcription: 10.56
  STEAP4 expression, antagonist transcription: 74.44
  TMPRSS2 expression, antagonist transcription: 10.51
LNCaP/AR(cs) cells; +1 nM R1881, 10 μM
  AMIGO2 expression, antagonist transcription: 0.78
  BDNF expression, antagonist transcription: 0.99
  CAM2KN1 expression, antagonist transcription: 0.50
  FASN expression, antagonist transcription: 0.46
  FKBP5 expression, antagonist transcription: 1.41
  NKX3.1 expression, antagonist transcription: 4.70
  NOV expression, antagonist transcription: 1.00
  ORM1 expression, antagonist transcription: 43.91
  PLD1 expression, antagonist transcription: 0.42
  PSA expression, antagonist transcription: 6.59
  SLUG expression, antagonist transcription: 5.26
  STEAP4 expression, antagonist transcription: 13.61
  TMPRSS2 expression, antagonist transcription: 3.58
LNCaP/AR(cs) cells; +1 nM R1881, 30 μM
  AMIGO2 expression, antagonist transcription: 0.92
  BDNF expression, antagonist transcription: 1.12
  CAM2KN1 expression, antagonist transcription: 0.56
  FASN expression, antagonist transcription: 0.59
  FKBP5 expression, antagonist transcription: 1.50
  HPGD expression, antagonist transcription: 4.25
  NKX3.1 expression, antagonist transcription: 5.03
  NOV expression, antagonist transcription: 0.92
  ORM1 expression, antagonist transcription: 22.70
  PLD1 expression, antagonist transcription: 0.54
  PSA expression, antagonist transcription: 5.65
  SLUG expression, antagonist transcription: 5.22
  STEAP4 expression, antagonist transcription: 7.79
  TMPRSS2 expression, antagonist transcription: 4.62
LNCaP/AR(cs) cells; [2]
  FASN gene expression: 1.19
  FKBP5 gene expression: 1.71
  HPGD gene expression: 2.01
